In patent US20130039956A1, “USE OF NITROCARBOXYLIC ACIDS FOR THE TREATMENT, DIAGNOSIS AND PROPHYLAXIS OF AGGRESSIVE HEALING PATTERNS” (priority 2010, published 2013):

Key:
fibroblasts = assay: Mechanical alteration of fibroblasts (cyclic stretching of coated polypropylene meshes); format: cell-based; settings: cyclic stretching, day 7, day 21, 8 weeks, compared with native FA
Text: In order to simulate the effects of chronic shear forces on a healing wound, an in vitro model was established. A flat balloon was placed on the bottom of a Petri dish. A silicone sheet was placed above and sealed with the side of the Petri dish. Then a 3 mm agar layer was casted on top of the sheet. Commercially available polypropylene meshes for hernia repair (microporous mesh, a low-weight and macroporous mesh with absorbable polyglactin filaments, and a heavy-weight and microporous mesh) were placed on the agar plates and fixed at 4 points at the side of the Petri dish. This setting enabled stretching of the meshes by filling the balloons with air, which was performed at 10-second intervals using an automated pumping device. The model can be used to evaluate the effect of three-dimensional (3D) shear forces on cell growth during cell cultivation. Preincubated suspensions of fibroblasts (1.5×10(5) cells) in a culture medium (10% FCS) were added to the culture dishes and allowed to grow for 48 hours. Cyclic stretching was started at day 3. Histological analysis was performed from the central portions of the meshes at day 7, at day 21, and after 8 weeks. The scaffolds were detached from the culture plate and carefully rinsed. Then, they were cut into pieces, casted, and further processed for standard histology and immunohistology. Care was taken to achieve a cutting plane that was vertical to the surface plane of the meshes. Histological analysis evaluated the cellularity, the content of extra cellular matrix (ECM), and the magnitude of protein synthesis. Meshes were dip-coated with native and nitro fatty acids or left blank in the same manner as in example 1. The uncoated meshes served as controls.

TRPV-1 = target: T1, TRPV-1 (Mus musculus, UniProt Q704Y3); assay: Signal transduction of receptors of the TRP-protein family in retinal slices; format: cell-based, mice; settings: 10 and 50 μmol, capsaicin 10 μmol or acid pH; compared with native FA
T1 construct: Whole retinas were isolated and cut into 100 μm slices using a tissue slicer; from tissue; host or cells: mouse retinal slices (100 μm)
T1 sequence (Q704Y3 whole entry): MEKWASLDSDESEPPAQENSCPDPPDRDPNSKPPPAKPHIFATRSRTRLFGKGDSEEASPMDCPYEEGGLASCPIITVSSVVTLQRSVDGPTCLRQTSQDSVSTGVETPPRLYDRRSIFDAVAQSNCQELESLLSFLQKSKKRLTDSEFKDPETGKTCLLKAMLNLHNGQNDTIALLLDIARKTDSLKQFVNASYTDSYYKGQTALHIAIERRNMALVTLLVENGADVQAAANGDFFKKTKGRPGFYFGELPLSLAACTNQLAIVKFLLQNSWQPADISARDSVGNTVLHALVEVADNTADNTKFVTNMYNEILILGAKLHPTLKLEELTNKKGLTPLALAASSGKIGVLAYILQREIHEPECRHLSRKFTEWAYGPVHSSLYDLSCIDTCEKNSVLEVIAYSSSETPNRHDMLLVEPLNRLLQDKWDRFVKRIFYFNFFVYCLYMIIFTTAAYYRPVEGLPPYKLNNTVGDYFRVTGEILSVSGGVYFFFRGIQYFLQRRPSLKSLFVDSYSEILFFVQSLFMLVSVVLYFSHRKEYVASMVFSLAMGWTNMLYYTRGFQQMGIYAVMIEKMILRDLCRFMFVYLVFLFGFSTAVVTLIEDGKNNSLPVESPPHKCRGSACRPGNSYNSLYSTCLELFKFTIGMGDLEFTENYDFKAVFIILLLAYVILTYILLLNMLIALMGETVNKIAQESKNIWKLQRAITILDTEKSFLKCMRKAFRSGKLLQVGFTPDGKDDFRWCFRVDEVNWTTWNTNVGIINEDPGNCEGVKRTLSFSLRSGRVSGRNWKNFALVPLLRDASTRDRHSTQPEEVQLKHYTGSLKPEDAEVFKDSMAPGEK
Procedure: In order to determine the effect of nitrated fatty acids on receptor signal transduction, an in vitro model was used. Retinal slices from cadaver mice were prepared as described by Snellman and Nawy (Snellman J. Nawy S (2004). cGMP-dependent kinase regulates response sensitivity of the mouse on bipolar cell. J Neurosci 24:6621-6628). Whole retinas were isolated and cut into 100 μm slices using a tissue slicer and than transferred to the recording chamber. The chamber was continuously perfused with Ames media and oxygenated. Picrotoxin (100 μM), strychnine (10 μM), and TPMPA (50 μM) were added. Each nitro fatty acid was added in two experiments to achieve a final concentration of 10 μmol, and in another two experiments to achieve a final concentration of 50 μmol. In two experiments, the corresponding native fatty acid was added to achieve a final concentration of 10 and 50 μmol, and in two experiments saline solution was added which served as controls. Currents were measured via tissue electrodes and monitored throughout the investigation. After incubating the solution for 2 hours, the TRPV-1 agonist capsaicin was added to achieve a final concentration of 10 μmol. Experiments were performed using either 10 mmol Hepes or 10 mmol Mes adjusting the pH of the solution to 6.4 or 4.4, respectively. Furthermore, experiments were performed without or with preincubation (5 minutes) of the TRPV-1 antagonist capsazepine. The solution temperature was held constant at 35° C.

pericardial strips = assay: Cold induced injury in a whole tissue ex-vivo model (pericardium); format: cell-based, Wistar rats; settings: 200 μmol, 10 min, two cooling cycles; compared with native FA
Text: To determine whether nitrated fatty acids can be used to preserve cells and tissues from cold or cryoinjury, an in vitro model utilizing murine epicardium was established. The experimental set-up should reduce the possibility of ischemia or reperfusion injury to a minimum, but at the same time allow differentiation of the contribution of ischemia/reperfusion injury-triggered cell death, which is known to occur almost exclusively via apoptosis, whereas cell death induced by cold injury almost exclusively results in necrosis.
The pericardial sac was carefully resected in 24 anesthetized Wistar rats (180-270 g) of either sex. Care was taken to grasp the pericardium with a forceps only at the cutting edges and reduce traumatization of the central portions of the pericardium to a minimum. After resection, the cutting edge and the former apex area of the pericardium were dissected, as to obtain flat tissue strips which were placed immediately in the culture medium (DMEM) containing 10% FCS and antibiotics (penicillin, streptomycin). Tissue samples were cultured in an oxygen atmosphere at 18° C. for 2 days. […] Then the pericardial strips were cut into 4 pieces of equal size. One piece was further cultivated at 37° C. without undergoing the cooling cycles, thus, serving as the control. In each of three investigations, one piece was bathed in a solution (0.9% saline and 1% SDS) containing 200 μmol nitro-fatty acid or contained 200 μmol of the corresponding native fatty acid, for 10 min at a temperature of 18° C. One piece of pericardium was bathed in a solution without fatty acids under otherwise identical conditions. All samples were cooled by continuously decreasing from ambient temperature at a rate of 3° C./min to a minimum temperature of […]. After 1 hour, the samples were rewarmed at a rate of 3° C./min by continuously increasing the temperature until a temperature of 18° C., was achieved. Thereafter an identical cooling and rewarming cycle was performed. After the second cooling cycle, the tissue pieces were further cultured in the culture medium for 1 day allowing continuous adaptation to an ambient temperature of 37° C. For analytical preparations the pericardial pieces were out and further processed. A direct TUNEL assay (Roche) was use for quantification of apoptosis, an annexin V/propidium iodide exclusion assay (Roche) was used to quantify the number of necrotic cells, and viability was determined by the WST-8 assay. Furthermore, the LDH release was quantified in the supernatants.
To rule out that cell death has been induced by ischemia or reperfusion (reoxygenation), in one series of experiments, a control sample was incubated with an all-caspase inhibitor (Q-VD-OPH, BioVision, USA) reconstituted in DMSO before the sample was exposed to cold.
Further: key: 0: not superior to native FA (control); +: Superior to native FA; ++: superior to both; +++: outstanding effect.

5-nitro-eicosatrienoic acid [compound 4]
Relative effect on fibroblasts under mechanical alteration (fibroblasts): +

9,10-nitro-cis-oleic acid [compound 10]
Relative effect on TRPV-1 signal transduction (current response) (TRPV-1): ++
Relative effect on cold induced injury (pericardial strips): +
Relative effect on fibroblasts under mechanical alteration (fibroblasts): ++

9,10-nitro-trans-oleic acid [compound 15]
Relative effect on fibroblasts under mechanical alteration (fibroblasts): +

CCCCCCCC/C=C(/CCCCCCCC(=O)O)[N+](=O)[O-] [compound 1, 9-nitro cis-oleic acid]
Relative effect on TRPV-1 signal transduction (current response) (TRPV-1): ++
Relative effect on cold induced injury (pericardial strips): ++
Relative effect on fibroblasts under mechanical alteration (fibroblasts): +++

CCCCC/C=C\C/C(=C\CCCCCCCC(=O)O)[N+](=O)[O-] [compound 2, 10-nitro-cis-linoleic acid]
Relative effect on TRPV-1 signal transduction (current response) (TRPV-1): ++
Relative effect on cold induced injury (pericardial strips): ++
Relative effect on fibroblasts under mechanical alteration (fibroblasts): +++

CCCCCCCC/C(=C/CCCCCCCC(=O)O)[N+](=O)[O-] [compound 3, 10-nitro-cis-oleic acid]
Relative effect on TRPV-1 signal transduction (current response) (TRPV-1): ++
Relative effect on cold induced injury (pericardial strips): +
Relative effect on fibroblasts under mechanical alteration (fibroblasts): ++

CCCCC/C=C(/C/C=C\C/C=C\C/C=C\C/C=C\CCC(=O)O)[N+](=O)[O-] [compound 5, 16-nitro-all-cis-4,7,10,13,16-docosapentaenoic acid]
Relative effect on fibroblasts under mechanical alteration (fibroblasts): ++

CC/C=C\C/C=C\C/C=C(/CCCCCCCC(=O)O)[N+](=O)[O-] [compound 6, 9-nitro-all-cis-9-12,15-octadecatrienoic acid]
Relative effect on TRPV-1 signal transduction (current response) (TRPV-1): +
Relative effect on cold induced injury (pericardial strips): ++
Relative effect on fibroblasts under mechanical alteration (fibroblasts): ++

CC/C=C\C/C=C\C/C(=C/C/C=C\C/C=C\CCCCCC(=O)O)[N+](=O)[O-] [compound 7, 14-nitro-all-cis-7,10,13,16,19-docosapentaenoic acid]
Relative effect on fibroblasts under mechanical alteration (fibroblasts): +

CCCCCCCC/C=C(/CCCCCCCCCCCCCC(=O)O)[N+](=O)[O-] [compound 8, 15-nitro-cis-15-tetracosenoic acid]
Relative effect on fibroblasts under mechanical alteration (fibroblasts): +

CCCCCCCC/C=C(\CCCCCCCC(=O)O)[N+](=O)[O-] [compound 9, 9-nitro-trans-oleic acid]
Relative effect on fibroblasts under mechanical alteration (fibroblasts): +

CCCCC=C(C=CC=CCCCCCCCC(=O)O)[N+](=O)[O-] [compound 11, 13-nitro-octadeca-9,11,13-trienoic acid]
Relative effect on fibroblasts under mechanical alteration (fibroblasts): +

CCCCCCCC/C(=C\CCCCCCCC(=O)O)[N+](=O)[O-] [compound 12, 10-nitro-trans-oleic acid]
Relative effect on fibroblasts under mechanical alteration (fibroblasts): +

CCCCCC/C=C(/CCCCCCCC(=O)O)[N+](=O)[O-] [compound 13]
Relative effect on fibroblasts under mechanical alteration (fibroblasts): +

CCCCCC=CCC=C(CC=CCC=CCCCC(=O)O)[N+](=O)[O-] [compound 14, 11-nitro-5,8,11,14-eicosatrienoic acid]
Relative effect on fibroblasts under mechanical alteration (fibroblasts): 0

CCCCCC/C=C(\CCCCCCCC(=O)O)[N+](=O)[O-] [compound 16, 9-nitro-9-trans-hexadecenoic acid]
Relative effect on fibroblasts under mechanical alteration (fibroblasts): ++

CCCCCCCC/C=C(/CCCCCCCCCCCC(=O)O)[N+](=O)[O-] [compound 17, 13-nitro-cis-13-docosenoic acid]
Relative effect on fibroblasts under mechanical alteration (fibroblasts): +

CCCCC/C=C(/C/C=C\C/C=C(/C/C=C\CCCC(=O)O)[N+](=O)[O-])[N+](=O)[O-] [compound 18, 8,14-nitro-cis-5,8,11,14-eicosatetraenoic acid]
Relative effect on fibroblasts under mechanical alteration (fibroblasts): +

CCC=CCC=C(CC=CCC=CCC=CCC=C(CCC(=O)O)[N+](=O)[O-])[N+](=O)[O-] [compound 19, 4,16-nitro-docosahexaenoic acid]
Relative effect on fibroblasts under mechanical alteration (fibroblasts): ++

CCCCCCCCCCC/C=C(/CCCCC(=O)O)[N+](=O)[O-] [compound 21, 6-nitro-cis-6-octadecenoic acid]
Relative effect on cold induced injury (pericardial strips): +
Relative effect on fibroblasts under mechanical alteration (fibroblasts): +

CCCCCC=CCC=C(CC=CC/C=C\CCCC(=O)O)[N+](=O)[O-] [compound 22, 11-nitro-cis-5,8,11,14-eicosatetraenoic acid]
Relative effect on TRPV-1 signal transduction (current response) (TRPV-1): +
Relative effect on cold induced injury (pericardial strips): ++
Relative effect on fibroblasts under mechanical alteration (fibroblasts): ++
